Assays:
[1] = system: Puccinia recondita f. sp. tritici; assay: Puccinia recondita f. sp. tritici / wheat / leaf disc preventative (brown rust); type: in vivo; conditions: foliar, wheat leaf segments cv. Kanzler, inoculated 1 day after application, compared to untreated control
Procedure: Example B10: Puccinia recondita f. Sp. Tritici/Wheat/Leaf Disc Preventative (Brown Rust) Wheat leaf segments cv. Kanzler are placed on agar in multiwell plates (24-well format) and sprayed with the formulated test compound diluted in water. The leaf disks are inoculated with a spore suspension of the fungus 1 day after application. The inoculated leaf segments are incubated at 19° C. and 75% rh under a light regime of 12 h light/12 h darkness in a climate cabinet and the activity of a compound is assessed as percent disease control compared to untreated when an appropriate level of disease damage appears in untreated check leaf segments (7-9 days after application). […] […]-10, and P-11.

[2] = system: Puccinia recondita f. sp. tritici; assay: Puccinia recondita f. sp. tritici / wheat / leaf disc curative (brown rust); type: in vivo; conditions: foliar, 24 h, wheat leaf segments cv. Kanzler, compound applied 1 day after inoculation, compared to untreated control
Procedure: Example B9: Puccinia recondita f. Sp. Tritici/Wheat/Leaf Disc Curative (Brown Rust) Wheat leaf segments cv. Kanzler are placed on agar in multiwell plates (24-well format). The leaf segments are inoculated with a spore suspension of the fungus. Plates are stored in darkness at 19° C. and 75% rh. The formulated test compound diluted in water is applied 1 day after inoculation. The leaf segments are incubated at 19° C. and 75% rh under a light regime of 12 h light/12 h darkness in a climate cabinet and the activity of a compound is assessed as percent disease control compared to untreated when an appropriate level of disease damage appears in untreated check leaf segments (6-8 days after application). […] […]-9, and P-11.

SMILES | pest or weed control at 200 ppm [1] | pest or weed control at 200 ppm [2]
Cc1sc(N(C(=O)C2CCOC2)c2cc(F)nc(F)c2)nc1C(=O)N(C(=O)C1CCOC1)C1CCC1(C)C (stereo not drawn) [Compound P-1, 2-[(2,6-difluoro-4-pyridyl)-(tetrahydrofuran-3-carbonyl)amino]-N-(2,2-dimethylcyclobutyl)-5-methyl-N-(tetrahydrofuran-3-carbonyl)thiazole-4-carboxamide] | ≥ 80% | ≥ 80%
Cc1sc(N(C(=O)C2CCCO2)c2cc(F)nc(F)c2)nc1C(=O)NC1CCC1(C)C (stereo not drawn) [Compound P-2, 2-[(2,6-difluoro-4-pyridyl)-(tetrahydrofuran-2-carbonyl)amino]-N-(2,2-dimethylcyclobutyl)-5-methyl-thiazole-4-carboxamide] | ≥ 80% | ≥ 80%
Cc1sc(N(C(=O)C2CCOC2)c2cc(F)nc(F)c2)nc1C(=O)NC1CCC1(C)C (stereo not drawn) [Compound P-3, 2-[(2,6-difluoro-4-pyridyl)-(tetrahydrofuran-3-carbonyl)amino]-N-(2,2-dimethylcyclobutyl)-5-methyl-thiazole-4-carboxamide] | ≥ 80% | ≥ 80%
Cc1sc(N(C(=O)C2COC2)c2cc(F)nc(F)c2)nc1C(=O)NC1CCC1(C)C (stereo not drawn) [Compound P-4, 2-[(2,6-difluoro-4-pyridyl)-(oxetane-3-carbonyl)amino]-N-(2,2-dimethylcyclobutyl)-5-methyl-thiazole-4-carboxamide] | ≥ 80% | ≥ 80%
Cc1sc(N(C(=O)C(C)OC(C)(C)C)c2cc(F)nc(F)c2)nc1C(=O)NC1CCC1(C)C (stereo not drawn) [Compound P-5, 2-[2-tert-butoxypropanoyl-(2,6-difluoro-4-pyridyl)amino]-N-(2,2-dimethylcyclobutyl)-5-methyl-thiazole-4-carboxamide] | ≥ 80% | ≥ 80%
Cc1sc(N(C(=O)C(C)OC(C)C)c2cc(F)nc(F)c2)nc1C(=O)NC1CCC1(C)C (stereo not drawn) [Compound P-6, 2-[(2,6-difluoro-4-pyridyl)-(2-isopropoxypropanoyl)amino]-N-(2,2-dimethylcyclobutyl)-5-methyl-thiazole-4-carboxamide] | ≥ 80% | ≥ 80%
Cc1sc(N(C(=O)COC(C)(C)C)c2cc(F)nc(F)c2)nc1C(=O)NC1CCC1(C)C (stereo not drawn) [Compound P-7, 2-[(2-tert-butoxyacetyl)-(2,6-difluoro-4-pyridyl)amino]-N-(2,2-dimethylcyclobutyl)-5-methyl-thiazole-4-carboxamide] | ≥ 80% | 
COC(C)C(=O)N(c1cc(F)nc(F)c1)c1nc(C(=O)NC2CCC2(C)C)c(C)s1 (stereo not drawn) [Compound P-9, 2-[(2,6-difluoro-4-pyridyl)-(2-methoxypropanoyl)amino]-N-(2,2-dimethylcyclobutyl)-5-methyl-thiazole-4-carboxamide] | ≥ 80% | ≥ 80%
Cc1sc(N(C(=O)C(C)S(C)(=O)=O)c2cc(F)nc(F)c2)nc1C(=O)NC1CCC1(C)C (stereo not drawn) [Compound P-10, 2-[(2,6-difluoro-4-pyridyl)-(2-methylsulfonylpropanoyl)amino]-N-(2,2-dimethylcyclobutyl)-5-methyl-thiazole-4-carboxamide] | ≥ 80% | 
Cc1sc(N(C(=O)C2CCOCC2)c2cc(F)nc(F)c2)nc1C(=O)NC1CCC1(C)C (stereo not drawn) [Compound P-11, 2-[(2,6-difluoro-4-pyridyl)-(tetrahydropyran-4-carbonyl)amino]-N-(2,2-dimethylcyclobutyl)-5-methyl-thiazole-4-carboxamide] | ≥ 80% | ≥ 80%
